Assay results from ChEMBL document CHEMBL1201862, “PubChem BioAssay data set” (2004).
Values joined by “and” are separate entries in the source; they are usually repeats but may differ in a detail not shown here. Identical values can stand only once.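 Interpolation was linear, between the two tested concentrations surrounding the appropriate level; five concentrations were tested over 48 hours in 96-well plates. At the GI50, growth is halved.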 Active and inactive are the calls of the source. Cut-off read from the data, not from the text of the source: active = GI50 up to about 1.1 µM and inactive = higher.

Key:
Assay in all cases: DTP human tumour cell line panel, 48 h
[1] = test system: SF-295
[2] = test system: HT-29
[3] = test system: OVCAR-3
[4] = test system: EKVX
[5] = test system: SNB-75
[6] = test system: MDA-N
[7] = test system: UACC-62
[8] = test system: A549
[9] = test system: IGROV-1
[10] = test system: COLO 205
[11] = test system: UO-31
[12] = test system: PC-3
[13] = test system: SW-620
[14] = test system: SNB-19
[15] = test system: SF-268
[16] = test system: SK-MEL-2
[17] = test system: HOP-62
[18] = test system: KM12
[19] = test system: NCI-H460
[20] = test system: A498

Measured: GI50

CCCCCCCCCCCCC(=O)NCC(=O)NC(Cc1ccccc1)C(=O)Oc1ccc([N+](=O)[O-])cc1 (stereo not given)
inactive: [1] 50.4 µM | [2] 82.2 µM | [3] > 100 µM | [4] 70.6 µM | [5] 18.5 µM | [6] > 100 µM | [7] 60.3 µM | [8] > 100 µM | [9] 87.9 µM | [10] 16.7 µM | [11] 92.9 µM | [12] > 100 µM | [13] 39.9 µM | [14] 15.2 µM | [15] 31.9 µM | [16] > 100 µM | [17] > 100 µM | [18] 55.6 µM | [19] > 100 µM | [20] > 100 µM

Cc1nc2ccccc2c(=O)n1NC(=S)Nc1ccc(Cl)cc1[N+](=O)[O-]
inactive: [1] > 100 µM | [2] > 100 µM | [3] > 100 µM | [4] 36.2 µM | [5] > 78.3 µM | [6] > 100 µM | [7] > 100 µM | [8] > 100 µM | [9] > 100 µM | [10] > 100 µM | [11] > 55.5 µM | [12] > 100 µM | [13] > 100 µM | [14] > 72.8 µM | [15] > 100 µM | [16] > 100 µM | [17] > 100 µM | [18] > 100 µM | [19] > 100 µM | [20] > 100 µM

N#Cc1nc(C#N)n(C(=O)c2ccccc2)c1NC(=O)c1ccccc1
inactive: [1] > 100 µM | [2] > 100 µM | [3] > 100 µM | [4] > 100 µM | [5] > 100 µM | [6] > 100 µM | [7] > 100 µM | [8] > 100 µM | [9] > 100 µM | [10] > 100 µM | [11] > 100 µM | [12] > 100 µM | [13] > 100 µM | [14] > 100 µM | [15] > 100 µM | [16] > 100 µM | [17] > 100 µM | [18] > 100 µM | [19] > 100 µM | [20] > 100 µM

CC(=O)OCC(OC(C)=O)C(OC(C)=O)C(/C=N\Nc1nc2ccccc2c(=O)[nH]1)OC(C)=O (stereo not given)
inactive: [1] > 100 µM | [2] 26.2 µM and 41.6 µM | [3] > 100 µM | [4] > 100 µM | [5] > 100 µM | [6] > 100 µM | [7] > 100 µM | [8] > 100 µM | [9] 26.1 µM and 43.5 µM | [10] > 100 µM | [11] > 100 µM | [12] > 100 µM | [13] > 100 µM | [14] > 100 µM | [15] > 100 µM | [16] > 100 µM | [17] > 100 µM | [18] > 100 µM | [19] > 100 µM | [20] > 100 µM

COc1cc(OC2OC(CO)C(O)C(O)C2O)c2c(c1)O[C@@H]1[C@H](O)Oc3cc(OC)c(OC)cc3[C@]1(O)C2=O (stereo not given in full)
inactive: [1] > 25 µM | [2] > 25 µM | [3] > 25 µM | [4] > 25 µM | [5] > 25 µM | [6] > 25 µM | [7] > 25 µM | [8] > 25 µM | [9] > 25 µM | [10] > 25 µM | [11] > 25 µM | [12] > 25 µM | [13] > 25 µM | [14] > 25 µM | [15] > 25 µM | [16] > 25 µM | [17] > 25 µM | [18] > 25 µM | [19] > 25 µM | [20] > 25 µM

C=C1C(=O)O[C@@H]2[C@H]1C[C@H](I)[C@@]1(C)CC[C@H](O1)[C@](C)(I)CCCC(C)[C@@H]2O (stereo not given in full)
inactive: [1] 16 µM | [2] 1.93 µM | [3] 2.64 µM | [4] 8.95 µM | [5] 2.33 µM | [6] 2.7 µM | [7] 4.92 µM | [8] 9.79 µM | [9] 2.01 µM | [10] 2.21 µM | [11] 3.66 µM | [12] 6.03 µM | [13] 1.81 µM | [14] 16.4 µM | [15] 12.6 µM | [16] 12.9 µM | [17] 19.4 µM | [18] 9.04 µM | [19] 14.5 µM | [20] 14.6 µM

O=c1c(-c2ccc(O)cc2)coc2cc(OC3OC(CO)C(O)C(O)C3O)cc(O)c12 (stereo not given)
inactive: [1] 92.7 µM | [2] > 100 µM | [3] > 100 µM | [4] 38.8 µM | [5] 35.7 µM | [6] > 100 µM | [7] 81.3 µM | [8] 60.3 µM | [9] > 10 µM | [10] > 10 µM | [11] 22.2 µM | [12] 63.8 µM | [13] > 10 µM | [14] > 100 µM | [15] 41.7 µM | [16] > 10 µM | [17] > 10 µM | [18] > 100 µM | [19] 46.9 µM | [20] > 100 µM

O=C1Nc2ccccc2C(=O)/C1=C/NC(=S)NC1CCCCC1
inactive: [1] > 100 µM | [2] > 100 µM | [3] > 100 µM | [4] > 100 µM | [5] > 100 µM | [6] > 100 µM | [7] > 100 µM | [8] > 100 µM | [9] > 100 µM | [10] > 100 µM | [11] > 100 µM | [12] > 100 µM | [13] > 100 µM | [14] > 100 µM | [15] > 100 µM | [16] > 100 µM | [17] > 100 µM | [18] > 100 µM | [19] > 100 µM | [20] > 100 µM

O=C(O[C@H]1CCN2C[C@H]3C[C@H](CN4C(=O)CCC[C@H]34)[C@@H]2C1)c1ccc(O)cc1
inactive: [1] > 100 µM | [2] > 100 µM | [3] > 100 µM | [4] > 100 µM | [5] > 100 µM | [6] > 100 µM | [7] > 100 µM | [8] > 100 µM | [9] > 100 µM | [10] > 100 µM | [11] > 100 µM | [12] > 100 µM | [13] > 100 µM | [14] > 100 µM | [15] > 100 µM | [16] > 100 µM | [17] > 100 µM | [18] > 100 µM | [19] > 100 µM | [20] > 100 µM

N#Cc1nc(C#N)n(S(=O)(=O)c2ccccc2)c1NS(=O)(=O)c1ccccc1
inactive: [1] > 100 µM | [2] > 100 µM | [3] > 100 µM | [4] > 53.2 µM | [5] > 65.3 µM | [6] > 100 µM | [7] > 100 µM | [8] > 100 µM | [9] > 100 µM | [10] > 100 µM | [11] 27 µM | [12] > 100 µM | [13] > 100 µM | [14] > 100 µM | [15] > 100 µM | [16] > 31.6 µM | [17] > 100 µM | [18] > 100 µM | [19] > 100 µM | [20] > 100 µM

O=S(=O)(/N=c1\[nH]c(-c2cc(O)c(O)c(O)c2)cs1)c1ccc(Cl)cc1Cl
inactive: [1] 17.2 µM | [2] 22.8 µM | [3] 17.4 µM | [4] 18.1 µM | [5] 25.7 µM | [6] 25.1 µM | [7] > 100 µM | [8] 31.9 µM | [9] 20.8 µM | [10] 22 µM | [11] 20.4 µM | [12] 34.5 µM | [13] 18.5 µM | [14] 31 µM | [15] 20.5 µM | [16] 43.8 µM | [17] 17.9 µM | [18] 15.2 µM | [19] 18.7 µM | [20] 53.1 µM

C=CCN1CCC(OC(=O)C(O)(C#CC)C2CCCC2)CC1 (stereo not given)
inactive: [1] > 100 µM | [2] > 100 µM | [3] > 100 µM | [4] > 100 µM | [5] > 77.3 µM | [6] > 100 µM | [7] > 100 µM | [8] > 100 µM | [9] > 100 µM | [10] > 100 µM | [11] > 100 µM | [12] > 100 µM | [13] > 100 µM | [14] > 100 µM | [15] > 100 µM | [16] > 100 µM | [17] > 100 µM | [18] > 100 µM | [19] > 100 µM | [20] > 100 µM

N#CC1=C(N)OC2=C(CCCc3ccc([N+](=O)[O-])cc32)C1c1ccc(Cl)cc1 (stereo not given)
inactive: [1] 11 µM | [2] 4.1 µM | [3] 6.34 µM | [4] 4.43 µM | [5] 11.8 µM | [6] 6.7 µM | [7] 5.02 µM | [8] 6.7 µM | [9] 8.71 µM | [10] 5.35 µM | [11] 3.3 µM | [12] 3.94 µM | [13] 9.35 µM | [14] 32.9 µM | [15] 8.43 µM | [16] 13.4 µM | [17] 19.7 µM | [18] 5.58 µM | [19] 3.83 µM | [20] 5.73 µM
